Test results published in patent US6759509B1, “Branched peptide linkers” (Bristol-Myers Squibb Company, priority 1996, dated 2004).

Experiment: decomposition of the isolated drug/linker in solution
Format: physicochemical
Details: by HPLC for Example 31
Procedure: A solution of MEt-IDA-(Phe-Lys(Mtr)-PABC-MMC)2 30 (134.6 mg, 0.0590 mmol) in methylene chloride (3 mL) at rt was treated with anisole (1.28 mL, 200 equiv) and 1 M chloroacetic acid in methylene chloride (1.18 mL, 20 equiv). After 3.5 h ethyl acetate (30 mL) was added. The resulting purple solid was collected by filtration, washed with ethyl acetate and air-dried (97.8 mg, 82%). […] MS (FAB) 1738.3 (M+Na)^+, 1776.4 (M+K)^+.
MEt-IDA-(Phe-Lys(Mtr)-PABC-7-Paclitaxel)2 33 (333.0 mg, 0.0861 mmol) in methylene chloride (3 mL) was treated with anisole (1.87 mL, 200 equiv) and 1 M chloroacetic acid in methylene chloride (1.72 mL, 20 equiv). After 4 h the mixture was diluted with ether (30 mL). The resulting suspension was sonicated for several minutes and then the solid was collected by filtration and washed with ether (256.3 mg, 97%). […] MS (ESI) 2778.2 (MH)^+.

## MEt-IDA-(Phe-Lys-PABC-MMC)2.2Cl2CHCO2H [Example 31]
  stability of the product in solution: appeared to decompose in solution to one product
